According to article PMC12142871 (BMC Psychiatry, 2025):

Columns and labels:
[1] = dose-response meta-analysis; cited from earlier work
[2] = cited from earlier work
[3] = Therapeutic drug monitoring: steady-state trough serum sertraline concentration
[4] = Female, Adults, median (1st quartile, 3rd quartile), listed as sertraline

C/D (dose-adjusted serum concentration) ([3]; Adults, median (1st quartile, 3rd quartile)): 0.50 (0.33, 0.71) (ng/ml)/(mg/d)
C/D (dose-adjusted serum concentration) ([3]; Adults, median (1st quartile, 3rd quartile), listed as sertraline): 0.50 (ng/ml)/(mg/d)
C/D (dose-adjusted serum concentration) ([3]; Children and Adolescents, median (1st quartile, 3rd quartile)): 0.44 (0.31, 0.67) (ng/ml)/(mg/d)
C/D (dose-adjusted serum concentration) ([3]; Children and Adolescents, median (1st quartile, 3rd quartile), listed as sertraline): 0.44 (ng/ml)/(mg/d)
Serum Concentration ([3]; Female, Adults, median (1st quartile, 3rd quartile)): 62.3 (33.5, 102.0) ng/mL
C/D [3, 4]: 0.51 (ng/ml)/(mg/d)
Serum Concentration [3, 4]: 62.3 ng/mL
Serum Concentration ([3]; Female, Children and Adolescents, median (1st quartile, 3rd quartile)): 53.2 (32.4, 86.2) ng/mL
Serum Concentration ([3]; Female, Total, median (1st quartile, 3rd quartile)): 57.0 (32.9, 95.5) ng/mL
Serum Concentration ([3]; Male, Adults, median (1st quartile, 3rd quartile)): 55.8 (35.0, 86.0) ng/mL
Serum Concentration ([3]; Male, Adults, median (1st quartile, 3rd quartile), listed as sertraline): 55.8 ng/mL
Serum Concentration ([3]; Male, Children and Adolescents, median (1st quartile, 3rd quartile)): 41.8 (23.9, 65.5) ng/mL
Serum Concentration ([3]; Male, Total, median (1st quartile, 3rd quartile)): 52.4 (31.6, 81.3) ng/mL
C/D (dose-adjusted serum concentration) ([3]; Total, median (1st quartile, 3rd quartile)): 0.47 (0.32, 0.69) (ng/ml)/(mg/d)
Coefficient of variation (CV) of C/D value ([3]; adults, interindividual): 61.1%
Coefficient of variation (CV) of sertraline concentration ([3]; adults, interindividual): 68.0%
Coefficient of variation (CV) of C/D value ([3]; younger patients (children and adolescents), interindividual): 80.6%
Compound: CN[C@H]1CC[C@@H](c2ccc(Cl)c(Cl)c2)c2ccccc21 [Sertraline]
effective daily range [1]: 50 to 150 mg
reference range of serum concentration ([2]; children and adolescents, TDM-VIGIL study): 66 to 76 ng/mL
coefficient of variation of concentration ([2]; interindividual pharmacokinetic variability): 59%
